What is called Hill coefficient is the slope factor of the fitted curve. The Ki is a measure of affinity in units of concentration, obtained from inhibition or displacement. A high value points to weaker binding.

SMILES strings stand for the structures.

This note sets out measurements from ChEMBL document CHEMBL1125987, “C8-substituted derivatives of 2-(dipropylamino)tetralin: Palladium-catalyzed synthesis and interactions with 5-HT1A-receptors” (Bioorg Med Chem Lett, 1991).

The target in assay [1] is T1, 5-hydroxytryptamine receptor 1A (Rattus norvegicus) (UniProt P19327).
T1 sequence (whole entry): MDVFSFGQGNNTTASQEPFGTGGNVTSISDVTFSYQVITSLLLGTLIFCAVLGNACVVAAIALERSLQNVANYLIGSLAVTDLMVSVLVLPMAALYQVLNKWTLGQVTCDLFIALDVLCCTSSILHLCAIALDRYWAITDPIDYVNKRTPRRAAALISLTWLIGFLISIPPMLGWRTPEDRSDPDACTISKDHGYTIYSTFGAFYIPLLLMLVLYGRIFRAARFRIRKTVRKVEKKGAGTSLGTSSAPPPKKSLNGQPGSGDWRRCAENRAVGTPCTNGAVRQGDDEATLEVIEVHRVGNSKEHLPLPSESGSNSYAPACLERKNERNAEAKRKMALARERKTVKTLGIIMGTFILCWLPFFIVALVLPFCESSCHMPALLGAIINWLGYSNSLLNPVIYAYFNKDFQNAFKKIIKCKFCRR
Put plainly: (§1) Inhibition of [3H]- 8-OH-DPAT binding to 5-HT1A-receptor from rat cerebral cortex membranes. It counts as cell membranes. The conditions noted are these: Membrane.

The target of assay [2] is T2, 5-hydroxytryptamine receptor 1A (Rattus norvegicus, UniProt P19327).
T2 sequence (P19327 whole entry): T1 sequence (whole entry)
The description is as §1. Format: cell membranes, Membrane.

Assay [3] concerns the target T1, 5-hydroxytryptamine receptor 1A (Rattus norvegicus). Put plainly: Compound evaluated for inhibiting the binding of [3H]- 8-OH-DPAT to 5-HT1A-receptor from cerebral cortex membranes of rat measured as Hill coefficient. Format: tissue-based. Particulars: Membrane.
Assay [4] relates to Rattus norvegicus. Put plainly: Agonism to 5-HT1A receptor was measured by the accumulation of DOPA in striatum of non pretreated rats subcutaneously at 0.32 um/Kg. It counts as functional.
In assay [5] the test system is Rattus norvegicus. Nature of the assay: (§2) In vivo inhibition of L-uM/Kg. It counts as functional.
Assay [6] concerns Rattus norvegicus. Nature of the assay: Agonism to 5-HT1A receptor was measured by the accumulation of DOPA in limbic region of non pretreated rats subcutaneously at 0.32 um/Kg. It counts as functional, Limbic system.
Assay [7] concerns Rattus norvegicus. The description is as §2. It counts as functional. The source holds these as a separate data set.

For the molecule `CCCN(CCC)[C@H]1CCc2cccc(-c3ccccc3)c2C1`, the Hill coefficient in assay [1] was 1.04. Affinity in assay [2] was put at a Ki of 24 nM.

Regarding `CCCN(CCC)[C@@H]1CCc2cccc(OS(=O)(=O)C(F)(F)F)c2C1`, in assay [1], the Hill coefficient stood at 0.79. Besides, the Ki in assay [2] came out at 3.8 nM.

For `CCCN(CCC)[C@@H]1CCc2cccc(C)c2C1`, the Hill coefficient in assay [1] was found to be 1.13. In assay [2], this molecule displayed a Ki of 34 nM.

In assay [1], `CCCN(CCC)[C@H]1CCc2ccccc2C1` had a Hill coefficient of 0.83. Moreover, the Ki in assay [2] was determined as 56 nM.

On to `CCCN(CCC)[C@H]1CCc2cccc(OS(=O)(=O)C(F)(F)F)c2C1`, for which, in assay [1], the Hill coefficient is 0.83. In assay [2], this molecule gave a Ki of 9.5 nM.

In the case of `CCCN(CCC)C1CCc2cccc(C(=O)O)c2C1` (racemic), in assay [2], the Ki is > 300 nM.

In the case of `CCCN(CCC)[C@H]1CCc2cccc(C(=O)OC)c2C1`, the Hill coefficient in assay [3] was 1.01. In addition, the Ki in assay [2] turned out to be 1.7 nM.

For the molecule `CCCN(CCC)[C@@H]1CCc2cccc(OC)c2C1`, the Hill coefficient in assay [1] is 1.11. Further, in assay [2], the Ki came to 1.5 nM.

`CCCN(CCC)[C@@H]1CCc2cccc(-c3ccccc3)c2C1` registered a Hill coefficient in assay [1] of 1. In assay [2], this molecule gave a Ki of 7.7 nM.

For `CCCN(CCC)[C@H]1CCc2cccc(OC)c2C1`, in assay [1], the Hill coefficient was determined as 0.96. Also, the Ki in assay [2] was 2.8 nM.

For the molecule `CCCN(CCC)[C@H]1CCc2cccc(C)c2C1`, the Hill coefficient in assay [1] was determined as 1.04. In assay [2], affinity was put at a Ki of 62 nM.

Regarding `CCCN(CCC)[C@@H]1CCc2cccc(C(C)=O)c2C1`, the Activity with Rattus norvegicus [4] was 1101 ng (g of tissue)-1; in the assay with Rattus norvegicus [5], 62.1 ng (g of tissue)-1; with Rattus norvegicus [6], 399 ng (g of tissue)-1; in the assay with Rattus norvegicus [7], 111 ng (g of tissue)-1. The molecule also displayed a Hill coefficient in assay [3] of 0.96. Also, in assay [2], affinity was put at a Ki of 1.8 nM.

With `CCCN(CCC)[C@H]1CCc2cccc(C(C)=O)c2C1`, the Activity with Rattus norvegicus [4] is reported as 1098 ng (g of tissue)-1; with Rattus norvegicus [5], 58.5 ng (g of tissue)-1; in the assay with Rattus norvegicus [6] it was 365 ng (g of tissue)-1; in the assay on Rattus norvegicus [7], 89 ng (g of tissue)-1. In addition, in assay [1], the Hill coefficient was 0.71. In assay [2], this molecule gave a Ki of 0.7 nM.

With `CCCN(CCC)[C@H]1CCc2cccc(O)c2C1`, the Activity in the assay on Rattus norvegicus [4] is recorded as 1136 ng (g of tissue)-1; in the assay with Rattus norvegicus [5], 55.8 ng (g of tissue)-1; in the assay with Rattus norvegicus [6] it was 445 ng (g of tissue)-1; with Rattus norvegicus [7], 112 ng (g of tissue)-1. Besides, the Hill coefficient in assay [1] was 0.86.

In the case of `CCCN(CCC)[C@@H]1CCc2cccc(O)c2C1`, the Activity is given as 1280 ng (g of tissue)-1 in the assay with Rattus norvegicus [4], 51.2 ng (g of tissue)-1 with Rattus norvegicus [5], 414 ng (g of tissue)-1 with Rattus norvegicus [6] and 102 ng (g of tissue)-1 with Rattus norvegicus [7]. Also, the Hill coefficient in assay [1] worked out at 0.97.

The molecule `CCCN(CCC)[C@@H]1CCc2ccccc2C1` returned a Hill coefficient in assay [1] of 0.85. Moreover, affinity in assay [2] was put at a Ki of 17 nM.

As to `CCCN(CCC)[C@@H]1CCc2cccc(C(=O)OC)c2C1`, the Hill coefficient in assay [3] stood at 0.9. This molecule showed a Ki in assay [2] of 4.3 nM.
